# Experiments:
# [1] = tested on: LGR5 expression in CRC cell lines; assay: LGR5 expression by flow cytometry in treated CRC cell lines; assay type: cell-based, human; conditions: panel DLD1, HCT116, LS174t, LoVo, SW48, SW480, SW620; 1 um, 72 hrs
# Description: A panel of CRC cell lines including DLD1, HCT116, LS174t, LoVo, SW48, SW480 and SW620 were treated with a PI3K/mTOR dual inhibitor (NVP) or 2 different cytotoxic agents including SN38 (active metabolite of Irinotecan) or 5FU (5 fluorouracil). Cells were treated with the above agents at 1 um and were harvested after 72 hrs. Cells were then stained with anti-LGR5 Mab conjugated to Alexa Fluor647 and the data were analyzed by flow cytometry using a FACScalibur.
# [2] = tested on: LGR5 expression in JH109, ASPC1 and PANC1 tumors; assay: QPCR of LGR5 expression in treated pancreatic tumors; assay type: in vivo, mice; conditions: standard of care: Gemzar and Abraxane in JH109, Gemzar alone in PANC1 and ASPC1
# Description: LGR5 expression in metastatic pancreatic patient derived xenografts was investigated using the quantitative polymerase chain reaction (QPCR). A sample of tumor tissue was flash frozen or added to a cryovial containing RNAlater (Qiagen, CA), and transferred to −70° C. after incubation at 4° C. for several hours. Total RNA was extracted using a Qiagen RNeasy extraction kit (Qiagen, CA), and cDNA was synthesized using a SuperScriptIII kit (Life Technologies, CA) and protocols provided by the manufacturer. Human LGR5 transcript abundance was measured using human specific LGR5 and GAPDH primers and the following thermal condition in the StepOne Thermocycler (Life Technologies, CA): 50° C. (2 min); 90° C. (2 min) and 40 cycles of 90° C. (15 sec) and 60° C. (1 min) and melt curve assessment (from 65° C.-95° C.). LGR5 abundance was quantified using 2^δCt equation.
# LGR5 expression was investigated in a series of pancreatic tumors including JH109, ASPC1 and PANC1.
# [3] = tested on: LGR5 expression in pancreatic cell lines; assay: LGR5 expression by flow cytometry in treated pancreatic cell lines; assay type: cell-based, human; conditions: panel AsPc1, HPAFII, PANC1, BxPC3, CFPAC, PANC10.05, Capan2, SW1990
# Description: The pancreatic cell lines that were tested include: AsPc1, HPAFII, PANC1, BxPC3, CFPAC, PANC10.05, Capan2 and SW1990.
Compound,LGR5 expression (flow cytometry) [1],LGR5 expression in tumors (QPCR) [2],LGR5 expression (flow cytometry) [3]
"O=c1[nH]cc(F)c(=O)[nH]1 [5FU, 5 fluorouracil]",did not induce LGR5 expression in any of these lines,–,–
CCc1c2c(nc3ccc(O)cc13)-c1cc3c(c(=O)n1C2)COC(=O)[C@]3(O)CC [SN38],"promoted LGR5 expression in HCT116, LS174t, SW48, SW480 and especially SW620 cells",–,–
"Nc1ccn([C@@H]2O[C@H](CO)[C@@H](O)C2(F)F)c(=O)n1 [gemcitabine, reference compound]",–,induction in LGR5 expression,upregulates LGR5 in PANC1
CC(=O)O[C@H]1C(=O)[C@@]2(C)[C@H]([C@H](OC(=O)c3ccccc3)[C@]3(O)C[C@H](OC(=O)[C@H](O)[C@@H](NC(=O)c4ccccc4)c4ccccc4)C(C)=C1C3(C)C)[C@]1(OC(C)=O)CO[C@@H]1C[C@@H]2O [taxol],–,–,increased LGR5 expression in HPAFII

# Source: US10745487B2, “Method of treating cancer by administering an anti-LGR5 monoclonal antibody” (Bionomics Limited, priority 2016, dated 2020)
